Assay [1] deals with E. coli MG1655 WT. Briefly: MIC, E. coli MG1655 wild-type with PAβN. The class given is cell-based, Escherichia coli. An excerpt:
(§1) E. coli MG1655 originated from the laboratory collection of Dr. Csaba Pál. […] E. coli K-12 BW25113 single-gene knockout mutant lines ΔdapF, ΔmrcB, ΔsurA, ΔacrB and ΔtolC originated form the Keio collection copy owned by the laboratory of Dr. Csaba Pál.
(§2) Cation-adjusted Mueller Hinton II broth (MHBII) was used for growth of the bacteria under standard laboratory conditions, for antimicrobial susceptibility tests, and for selection of resistant variants. To prepare the MHBII broth, 22 g MHBII powder (containing 3 g beef extract, 17.5 g acid hydrolysate of casein, 1.5 g starch; Becton, Dickinson and Co., Franklin Lakes, NJ, USA) was dissolved in 1 L water. MHBII agar was prepared by addition of 14 g agar (Bacto; Molar Chemicals, Halásztelek, Hungary) to 1 L broth.
Minimum inhibitory concentrations (MICs) were determined using a standard serial broth microdilution technique, according to the Clinical and Laboratory Standards Institute guidelines. […] For Enterococcus sp., the cells were plated in BHI agar plates, and BHI broth was used to determine the MICs. […] Following the dilutions, each well was seeded with 5 × 10^4 bacterial cells. Each measurement was performed in three parallel replicates, and to avoid possible edge effects in the microwell plates, the outside rows (A, H) were filled with sterile medium. Following the inoculations, the plates were covered with the lids and wrapped in polyethylene plastic bags, to minimize evaporation but to allow O2 transfer. […] After incubation, the OD600 of each well was measured using a microplate reader (Synergy 2; Biotek, Winooski, VT, USA). […]

In assay [2] the test system is E. coli MG1655 GyrB R136C. As to the kind of experiment: microbe, parasite or virus in culture. In kind it is cell-based, Escherichia coli.
Text: as §1, §2
(§3) Minimum inhibitory concentrations (MICs) were determined using a standard serial broth microdilution technique, according to the Clinical and Laboratory Standards Institute guidelines. […] For Enterococcus sp., the cells were plated in BHI agar plates, and BHI broth was used to determine the MICs. […] Following the dilutions, each well was seeded with 5 × 10^4 bacterial cells. Each measurement was performed in three parallel replicates, and to avoid possible edge effects in the microwell plates, the outside rows (A, H) were filled with sterile medium. Following the inoculations, the plates were covered with the lids and wrapped in polyethylene plastic bags, to minimize evaporation but to allow O2 transfer. […] After incubation, the OD600 of each well was measured using a microplate reader (Synergy 2; Biotek, Winooski, VT, USA).
(§4) These mutated amino acids are the most common sites for target-based resistance in E. coli.

The test system of assay [3] is E. coli MG1655 GyrA S83L, D87N ParC S80I, E84G. Briefly: microbe, parasite or virus in culture. In kind it is cell-based, Escherichia coli.
Text: as §1, §2, §3, §4

The subject of assay [4] is E. coli BW25113 ΔmrcB. The class given is cell-based, Escherichia coli.
Text: as §1, §2, §3

Assay [5] has as its system E. coli BW25113 ΔtolC. The class given is cell-based, Escherichia coli.
Text: as §1, §2, §3

In assay [6] the test system is E. coli BW25113 ΔsurA. The class given is cell-based, Escherichia coli.
Text: as §1, §2, §3

For assay [7], the system named is E. coli BW25113 ΔacrB. In kind it is cell-based, Escherichia coli.
Text: as §1, §2, §3

In assay [8] the test system is E. coli BW25113 ΔdapF. The class given is cell-based, Escherichia coli.
Text: as §1, §2, §3

Assay [9] deals with T1, E. coli topoisomerase IV (Escherichia coli, UniProt P0AFI2+P20083).
T1 construct: purchased Inspiralis, Norwich, UK
As to the kind of experiment: E. coli topoisomerase IV relaxation assay. In kind it is biochemical. How it is done:
(§5) The assay for determination of the IC50 values was performed according to previously reported procedures.
(§6) Briefly, inhibitory activities were determined using supercoiling (for DNA gyrase) and relaxation (for topoisomerase IV) assay kits (Inspiralis, Norwich, UK) on streptavidin-coated 96-well microtiter plates from Thermo Scientific Pierce (Thermo Fisher Scientific, Waltham, MA, USA). First, the plates were rehydrated with Wash Buffer and the biotinylated oligonucleotide TFO1 was then immobilized. After washing off the unbound oligonucleotide with Wash Buffer, the enzyme assay was performed. Into each well was added 24 µL of mixture containing 6 µL of Assay Buffer (containing ATP), 0.75 µL of relaxed (for E. coli DNA gyrase supercoiling assay) or supercoiled (for E. coli topoisomerase IV relaxation assay) pNO1 plasmid and 17.25 µL of water. Additionally, 3 µL of a solution of the inhibitor in 10% DMSO containing 0.008% Tween 20 and 3 µL of enzyme (1.5 U) in Dilution Buffer were also added to the wells. […] The TF buffer was added to terminate the enzymatic reaction and after additional incubation for 30 min at room temperature, which allowed for triplex formation (biotin–oligonucleotide–plasmid), the unbound plasmid was washed off using TF buffer. Promega Diamond dye in T10 buffer was then added. […] Here, the compounds were diluted using 2-fold serial dilution steps of the given compound. GraphPad Prism 6.0 software was used to calculate the IC50 values, which were determined in at least two independent measurements, and their means are given as the final result. […] Dose-response curves can be found in Supplementary Materials.

Assay [10] concerns K. pneumoniae ATCC 10031. Briefly: MIC broth microdilution, K. pneumoniae. The settings on record: Klebsiella pneumoniae, ATCC10031, read-out: MIC K. pneumoniae ATCC #. In kind it is cell-based.
Text: as §1, §2, §3

The test system of assay [11] is A. baumannii ATCC 17978. Briefly: MIC broth microdilution, A. baumannii. In kind it is cell-based. The settings on record: Acinetobacter baumannii, ATCC17978, read-out: MIC A. baumannii ATCC #.
Text: as §1, §2, §3

For assay [12], the system named is E. coli ATCC 25922. As to the kind of experiment: MIC broth microdilution, E. coli ATCC 25922. The class given is cell-based. The following applies: Escherichia coli, ATCC25922, read-out: MIC E. coli ATCC #.
Text: as §1, §2, §3

For assay [13], the system named is E. coli BW25113 WT. As to the kind of experiment: MIC, E. coli BW25113 wild-type. In kind it is cell-based. The settings on record: Escherichia coli, BW25113, read-out: Minimum Inhibitory Concentration E. coli BW# WT.
Text: as §1, §2, §3

Assay [14] deals with P. aeruginosa ATCC 27863. Briefly: MIC broth microdilution, P. aeruginosa. The settings on record: Pseudomonas aeruginosa. The class given is cell-based.
Text: as §1, §2, §3

In assay [15] the target is T2, E. coli DNA gyrase (Escherichia coli, UniProt P0AES4+P0AES6).
T2 construct: purchased Inspiralis, Norwich, UK
As to the kind of experiment: E. coli DNA gyrase supercoiling assay. In kind it is biochemical. How it is done: as §5, §6

Assay [16] has as its system E. cloacae spp. cloacae ATCC 13047. As to the kind of experiment: MIC broth microdilution, E. cloacae. In kind it is cell-based, Enterobacter cloacae. The following applies: for MIC: Enterobacter cloacae, ATCC13047, read-out: MIC E. cloacae spp. cloacae ATCC #.
Where [17] appears, read: in the presence of 50 µg/mL PAβN.
[18] abbreviates: molar conversion in parentheses.
Where [19] appears, read: ATCC27863, 18 h, read-out: MIC P. aeruginosa ATCC #.
Setting [20] is: ATCC27863, read-out: MIC P. aeruginosa ATCC #, molar conversion in parentheses, read-out: MIC P. aeruginosa ATCC 27863.

Molecules are shown by their SMILES. Like-named read-outs stand apart in the source and are kept apart here.

As for `Cc1[nH]c(C(=O)Nc2nc3c(OCc4ccccc4)cc(C(=O)NCCOCCN4CCN(c5cc6c(cc5F)c(=O)c(C(=O)O)cn6C5CC5)CC4)cc3s2)c(Cl)c1Cl.Cl` [Compound 11b, 1-(2-(2-(4-(Benzyloxy)-2-(3,4-dichloro-5-methyl-1H-pyrrole-2-carboxamido)benzo[d]thiazole-6-carboxamido)ethoxy)ethyl)-4-(3-carboxy-1-cyclopropyl-6-fluoro-4-oxo-1,4-dihydroquinolin-7-yl)piperazin-1-ium chloride], the MIC in assay [1] (Escherichia coli, MG1655, read-out: Minimum Inhibitory Concentration E. coli MG# WT, 50 µg/mL PAβN, molar conversion in parentheses) came out at 1.14 µM; in assay [2] (Escherichia coli, MG1655, read-out: Minimum Inhibitory Concentration E. coli MG# GyrB R#C), 2.28 µM; in assay [3] (Escherichia coli, MG1655, read-out: Minimum Inhibitory Concentration E. coli MG# GyrA S83L, D87N ParC S80I, E84G) it was 4.56 µM; in assay [10] (broth microdilution, 18 h), 1 µg/mL; in assay [10] (setting [18]), 1.14 µM; in [11] (broth microdilution, 18 h), 64 µg/mL. The MIC was 72.9 µM in assay [11] (setting [18]); 4 µg/mL in assay [12] (broth microdilution, 18 h); 4.56 µM in assay [12] (setting [18]); 9.11 µM in assay [13] (setting [18]); 8 µg/mL in assay [13] (wild-type); > 64 µg/mL in assay [14] (setting [19]). Further, the MIC was > 72.9 µM in assay [14] (setting [20]); 16 µg/mL in assay [16] (broth microdilution, 18 h); 18.2 µM in assay [16] (setting [18]). Besides, the “Minimum Inhibitory Concentration E. coli MG1655 WT” value in assay [1] (setting [17]) was found to be 1 µg/mL. Moreover, the “Minimum Inhibitory Concentration E. coli MG1655 GyrB R136C” value in assay [2] (setting [17]) came out at 2 µg/mL. Besides, the “Minimum Inhibitory Concentration E. coli MG1655 GyrA S83L, D87N ParC S80I, E84G” value in [3] (setting [17]) is recorded as 4 µg/mL. In addition, the figures for the “Minimum Inhibitory Concentration E. coli BW25113 ΔmrcB” value in assay [4] (impaired cell-wall mutant) and in assay [4] (setting [18]) were 8 µg/mL and “(9.11 µM)”, respectively. Besides, the “Minimum Inhibitory Concentration E. coli BW25113 ΔtolC” value in assay [5] (efflux pump mutant) was 1 µg/mL; in assay [5] (setting [18]) it was “(1.14 µM)”. For the same compound, the “MIC change, ΔtolC mutant versus wild-type E. coli BW25113” value in assay [5] (improvement of MIC in impaired efflux pump mutant) is 8 fold. The “Minimum Inhibitory Concentration E. coli BW25113 ΔsurA” value in assay [6] (impaired cell-wall mutant) was 8 µg/mL; in assay [6] (setting [18]) it was “(9.11 µM)”. The “Minimum Inhibitory Concentration E. coli BW25113 ΔacrB” value in assay [7] (efflux pump mutant) was 8 µg/mL; in assay [7] (setting [18]), “(9.11 µM)”. Moreover, the “Minimum Inhibitory Concentration E. coli BW25113 ΔdapF” value in [8] (impaired cell-wall mutant) is listed as 8 µg/mL; in assay [8] (setting [18]) it was “(9.11 µM)”. Besides, the IC50 in assay [9] amounted to 2500 ± 1100 nM; in assay [15], 14 ± 9 nM. In addition, in [9] (relaxation assay), the “Inhibition of topoisomerase IV (in words)” value is recorded as “low micromolar”.
As for `Cc1[nH]c(C(=O)Nc2nc3ccc(C(=O)O)cc3s2)c(Cl)c1Cl` [Compound 1a, 2-(3,4-dichloro-5-methyl-1H-pyrrole-2-carboxamido)benzo[d]thiazole-6-carboxylic acid, reference compound], the IC50 in assay [9] stood at 500 ± 280 nM. For the same compound, the MIC in assay [10] (broth microdilution, 18 h) stood at 1 µg/mL; in assay [10] (setting [18]) it was 2.7 µM; in assay [11] (broth microdilution, 18 h), 4 µg/mL; in assay [11] (setting [18]) it was 10.8 µM; in assay [12] (broth microdilution, 18 h) it was 4 µg/mL; in [12] (setting [18]), 10.8 µM. In addition, the MIC was 8 µg/mL in assay [14] (setting [19]); 21.6 µM in assay [14] (setting [20]); > 64 µg/mL in assay [16] (broth microdilution, 18 h); > 173 µM in [16] (setting [18]). Further, the “Antibacterial activity against E. cloacae (in words)” value in [16] was “inactive”.
As to `Cc1[nH]c(C(=O)Nc2nc3c(OCc4ccccc4)cc(C(=O)O)cc3s2)c(Cl)c1Cl` [Compound 1b, reference compound], the MIC in assay [10] (broth microdilution, 18 h) was found to be 4 µg/mL; in assay [10] (setting [18]), 8.4 µM; in assay [11] (broth microdilution, 18 h), 2 µg/mL; in [11] (setting [18]), 4.2 µM; in assay [12] (broth microdilution, 18 h), 16 µg/mL; in assay [12] (setting [18]), 33.6 µM. The MIC in assay [14] (setting [19]) was 2 µg/mL; in [14] (setting [20]) it was 4.2 µM; in assay [16] (broth microdilution, 18 h), > 64 µg/mL; in [16] (setting [18]), > 134 µM. Moreover, the “Antibacterial activity against E. cloacae (in words)” value in assay [16] is “inactive”.

Values taken from publication PMC7822030, “Hybrid Inhibitors of DNA Gyrase A and B: Design, Synthesis and Evaluation” (Pharmaceutics, 2020).
